These are literature values, as cited in patent US20070088012A1, “Method of treating or preventing type-2 diabetes” (priority 2005, published 2007).

Molecules are shown by their SMILES.

On to `C[C@]12CC[C@H]3[C@@H](CCC4=CC(=O)CC[C@@]43C)[C@@H]1CC[C@@H]2O` [Testosterone, testosterone], for which the “bound to protein in the blood” value (circulating testosterone) was 98%. For the setting “in men”, the “share bound weakly to albumin” value is reported as 60% and the “share of the binding to sex hormone binding globulin (SHBG)” value is listed as “approximately 40%”. The “Metabolic Clearance Rate of Daily Testosterone” value (men) is “^aMetabolic Clearance Rate of Daily Testosterone = 600 L/day”. The half-life of testosterone (reported in the literature) was 10 to 100 min.
